ChEMBL document CHEMBL5154776, “Discovery of Potent and Orally Bioavailable Platelet-Derived Growth Factor Receptor (PDGFR) Inhibitors for the Treatment of Osteosarcoma” (J Med Chem, 2022)

Columns and labels:
[1] = molecular target: T1, Platelet-derived growth factor receptor beta (Homo sapiens, UniProt P09619); assay: Inhibition of PDGFRbeta (unknown origin) by caliper mobility shift assay
[2] = molecular target: T1, Platelet-derived growth factor receptor beta; assay: Inhibition of PDGFRbeta (unknown origin) at 100 nM by caliper mobility shift assay relative to control
[3] = Toxicity in BALB/c nude mouse xenograted with human MNNG/HOS cells assessed as kidney lesion at 30 mg/kg/day, po for 14 days by hematoxylin and eosin staining method; assay type: organism-based, HOS-TE85; details: in vivo, 336 h, time 14 day
[4] = molecular target: Platelet-derived growth factor receptor alpha (Homo sapiens, UniProt P16234); details: dose 100.0 nM
Chain of Platelet-derived growth factor receptor alpha (P16234 whole entry): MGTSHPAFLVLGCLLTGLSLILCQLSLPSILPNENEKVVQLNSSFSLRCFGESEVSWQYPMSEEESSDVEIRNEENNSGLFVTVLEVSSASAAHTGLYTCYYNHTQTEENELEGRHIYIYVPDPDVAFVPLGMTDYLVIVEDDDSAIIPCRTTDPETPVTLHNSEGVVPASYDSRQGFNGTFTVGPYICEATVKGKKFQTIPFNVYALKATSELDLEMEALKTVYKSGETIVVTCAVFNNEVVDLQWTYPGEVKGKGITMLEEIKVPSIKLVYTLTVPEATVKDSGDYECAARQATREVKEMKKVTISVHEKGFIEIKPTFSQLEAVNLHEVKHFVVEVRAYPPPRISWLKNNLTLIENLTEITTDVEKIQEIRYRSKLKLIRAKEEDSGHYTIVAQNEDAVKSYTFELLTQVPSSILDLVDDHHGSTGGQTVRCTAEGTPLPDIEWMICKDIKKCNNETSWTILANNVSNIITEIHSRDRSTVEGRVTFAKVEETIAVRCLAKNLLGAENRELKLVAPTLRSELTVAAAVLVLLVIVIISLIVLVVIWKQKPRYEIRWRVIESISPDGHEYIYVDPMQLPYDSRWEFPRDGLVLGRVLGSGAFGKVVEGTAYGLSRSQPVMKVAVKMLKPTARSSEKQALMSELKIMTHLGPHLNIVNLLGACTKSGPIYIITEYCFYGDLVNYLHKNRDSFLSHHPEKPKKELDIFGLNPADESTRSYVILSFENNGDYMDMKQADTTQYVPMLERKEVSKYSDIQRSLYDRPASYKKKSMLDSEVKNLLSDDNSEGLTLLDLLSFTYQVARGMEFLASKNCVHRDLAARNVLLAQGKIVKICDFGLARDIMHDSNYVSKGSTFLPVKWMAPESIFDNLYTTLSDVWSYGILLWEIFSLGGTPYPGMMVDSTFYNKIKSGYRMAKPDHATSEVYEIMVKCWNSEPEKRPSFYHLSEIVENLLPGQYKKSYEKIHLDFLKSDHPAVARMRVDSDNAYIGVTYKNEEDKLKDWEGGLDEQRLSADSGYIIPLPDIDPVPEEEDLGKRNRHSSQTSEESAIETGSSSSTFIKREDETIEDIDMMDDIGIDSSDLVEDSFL
Description: Inhibition of PDGFRalpha (unknown origin) at 100 nM by caliper mobility shift assay relative to control

T1 sequence (P09619 whole entry): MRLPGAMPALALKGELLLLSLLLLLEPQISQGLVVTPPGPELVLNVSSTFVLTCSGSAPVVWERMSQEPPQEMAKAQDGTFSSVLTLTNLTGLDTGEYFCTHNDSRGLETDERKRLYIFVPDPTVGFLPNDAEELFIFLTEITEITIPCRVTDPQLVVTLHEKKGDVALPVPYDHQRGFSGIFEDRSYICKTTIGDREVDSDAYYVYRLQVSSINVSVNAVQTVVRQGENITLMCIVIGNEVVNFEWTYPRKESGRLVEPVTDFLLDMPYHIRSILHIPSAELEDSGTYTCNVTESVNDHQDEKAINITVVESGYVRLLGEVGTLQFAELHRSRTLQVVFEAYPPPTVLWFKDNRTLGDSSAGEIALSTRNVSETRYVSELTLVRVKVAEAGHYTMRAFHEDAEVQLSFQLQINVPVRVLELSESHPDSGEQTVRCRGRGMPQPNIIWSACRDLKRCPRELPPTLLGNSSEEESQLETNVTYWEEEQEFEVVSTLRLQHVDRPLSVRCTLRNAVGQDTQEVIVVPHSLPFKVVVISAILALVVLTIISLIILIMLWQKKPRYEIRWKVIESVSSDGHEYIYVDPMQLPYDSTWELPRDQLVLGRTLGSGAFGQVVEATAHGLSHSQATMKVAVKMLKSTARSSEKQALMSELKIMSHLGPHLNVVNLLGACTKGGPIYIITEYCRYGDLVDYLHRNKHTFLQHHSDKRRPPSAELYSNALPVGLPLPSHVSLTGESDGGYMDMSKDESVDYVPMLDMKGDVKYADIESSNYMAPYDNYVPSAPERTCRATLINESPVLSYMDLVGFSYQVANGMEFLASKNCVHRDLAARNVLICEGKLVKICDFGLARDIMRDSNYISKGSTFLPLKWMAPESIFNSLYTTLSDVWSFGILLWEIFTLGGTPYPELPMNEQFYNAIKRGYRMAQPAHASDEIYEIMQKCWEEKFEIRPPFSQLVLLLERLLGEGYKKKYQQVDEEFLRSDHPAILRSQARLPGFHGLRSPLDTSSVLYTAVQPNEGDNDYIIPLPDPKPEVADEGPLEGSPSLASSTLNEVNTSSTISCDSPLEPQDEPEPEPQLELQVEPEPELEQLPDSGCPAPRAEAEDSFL

IC50 [1] [nM] | inhibition [2] [%] | SMILES | further results
6.9 | – | Cc1cnc(Nc2ccc(N3CCOCC3)cc2)nc1Nc1ccc2cn[nH]c2c1 | –
40.9 | – | Cc1cnc(Nc2ccc(N3CCS(=O)(=O)CC3)cc2)nc1Nc1ccc2cn[nH]c2c1 | –
– | 90.3 | Cc1cnc(Nc2ccc(N3CCN(C)CC3)cc2)nc1Nc1cccc2[nH]ccc12 | –
– | 3.5 | CN1CCN(c2ccc(Nc3nc(Nc4ccc5cn[nH]c5c4)cc(C(F)(F)F)n3)cc2)CC1 | –
– | 71.1 | Cc1cnc(Nc2ccc(N3CCN(C)CC3)cc2)nc1Nc1ccc2nn(CCNC(=O)OC(C)(C)C)cc2c1 | –
110 | – | Cc1cnc(Nc2ccc(N3CCNCC3)cc2)nc1Nc1ccc2cn[nH]c2c1 | –
– | 94.4 | CN1CCN(c2ccc(Nc3ncc(F)c(Nc4ccc5cn[nH]c5c4)n3)cc2)CC1 | –
– | 79.2 | Cc1cnc(Nc2ccc(N3CCN(C)CC3)cc2)nc1Nc1ccc2c(ccn2C)c1 | –
– | 7.2 | Cc1cc(Nc2ccc3cn[nH]c3c2)nc(Nc2ccc(N3CCN(C)CC3)cc2)n1 | –
16.7 | – | Cc1cnc(Nc2ccc(N3CCC(N4CCN(C)CC4)CC3)cc2)nc1Nc1ccc2cn[nH]c2c1 | –
– | 98 | Cc1cnc(Nc2ccc(N3CCN(C)CC3)cc2)nc1Nc1ccc2c(C)n[nH]c2c1 | –
15.9 | – | Cc1cnc(Nc2ccc(C(=O)NCCN3CCOCC3)cc2)nc1Nc1ccc2cn[nH]c2c1 | –
– | – | Cc1ccc(NC(=O)c2ccc(CN3CCN(C)CC3)cc2)cc1Nc1nccc(-c2cccnc2)n1 [IMATINIB] | Activity [3]: Toxic
90.9 | – | Cc1cnc(Nc2ccc(N3CCC(F)(F)CC3)cc2)nc1Nc1ccc2cn[nH]c2c1 | –
– | 78.6 | Cc1cnc(Nc2ccc(N3CCN(C)CC3)cc2)nc1Nc1ccc2[nH]ccc2c1 | inhibition [4]: 57.3%
– | 97.6 | CN1CCN(c2ccc(Nc3ncc(Br)c(Nc4ccc5cn[nH]c5c4)n3)cc2)CC1 | inhibition [4]: 89.9%
– | 90.4 | Cc1cnc(Nc2ccc(N3CCN(C)CC3)cc2)nc1Nc1ccc2c(c1)CCCC2 | –
